Results: US20090061031A1, “Compositions and methods for treating obesity, obesity related disorders and for inhibiting the infectivity of human immunodeficiency virus” (priority 2006, published 2009)
“And” between values parts separate entries of the source, which are not always exact repeats. Equal entries are not always repeated. Where two headings read alike, the source gives them in different places.

Legend:
apoE ko mice = experiment: Diet-induced atherosclerosis in Western diet-fed apoE ko mouse; type: in vivo; details: 0.25 mg/ml in drinking water (daily dose 1.25 mg), 4 months
Procedure: To test whether oleuropein reduces diet-induced atherosclerosis, oleuropein was administered to apoE ko mice at various doses from 0.25 mg/ml, 2.5 mg/ml, and 25 mg/ml in the drinking water followed by feeding them with a Western diet containing 42% of calories from fat (Harlan-Teklad). […] The mice were sacrificed, blood and tissues collected. Aortas were dissected from the aortic valve to the iliac bifurcation, opened longitudinally, and pinned to a black wax surface. Atherosclerotic lesions were stained with Oil Red O. The total area of the aorta and the atherosclerotic lesion areas were determined by planimetry using Image Pro software.

[1] = parameters: species or system C57BL/6 wild-type mice; details: mouse, in vivo, po
Procedure: To verify that we can administer oleuropein chronically to mice, we added purified oleuropein to drinking water at concentrations of 5 μg/ml, 50 μg/ml, 500 μg/ml, and 5 mg/ml. The water intake of mice averages 5 ml per mouse per day, these dosages of oleuropein result in daily doses of 0.025 mg, 0.25 mg, 2.5 mg, and 25 mg per mouse per day (equivalent to 1, 10, 100, and 1000 mg/kg body weight). 5 male and 5 female C57BL/6 wild-type mice were used for each dose of oleuropein, and housed them in metabolic cages that allow precise determination of water intake and quantitative urine collection.
After seven days to 4 months of chronic steady-state administration, mice blood and urine were collected. 100 μl of serum or urine were extracted with 1 ml ethyl acetate, evaporated to dryness, and reconstituted with 25 μl water and 5 μl was injected for LC-MS analysis.
LC-MS quantitation was performed using an HP1100 equipped with diode array detector and ESI-mass spectrometer. LC was done using a C18 column (4×20 mm), with a 4 minute elution using a gradient of 5-95% CH3CN—H2O containing 1% acetic acid. The diode array recordings were made at 280 nm and 230 nm, and the ESI mass spectrum was made in negative detection mode. Purified oleuropein, and hydroxytyrosol (synthesized by us) were used as standards. The injection volumes were 5 μl. […]

HIV-1 [2] = type: cell-based, HIV-1IIIB
HIV-1 [3] = experiment: HIV-1 core protein p24 production; type: cell-based, HIV-1IIIB; details: Human immunodeficiency virus 1, 50% inhibition, read-out: Anti-HIV Activity EC50 P24
HIV-1 integrase [4] = target: T1, HIV-1 integrase (Human immunodeficiency virus type 1 group M subtype B, UniProt P12497, C1427S/F1332H); experiment: HIV-1 integrase 3′-processing assay; type: biochemical; details: 21-mer U3 substrate, read-out: Inhibitory Activity EC50 HIV-1 Integrase 3′-Proc
HIV-1 integrase [5] = target: T1, HIV-1 integrase; experiment: HIV-1 integrase strand-transfer (integration) assay; type: biochemical; details: U3-GT into pUC18, read-out: Inhibitory Activity EC50 HIV-1 Integrase ST
HIV-1 integrase [6] = target: T1, HIV-1 integrase; experiment: HIV-1 integrase disintegration assay; type: biochemical; details: read-out: EC50s of inhibition of disintegration product formation
[7] = tested on: HIV-1 primary isolates, M and T tropic strains from different clades; experiment: Activity against a panel of HIV-1 primary isolates; type: cell-based
in vitro = details: human
Procedure: Uninfected MT2 and H9 cell lines, and HIV-1IIIB chronically infected H9 (H9/HIV-1IIIB) and HIV-1/IIIB virus, were obtained through the AIDS Research and Reference Reagent Program, NIAID, NIH. […] The cell lines were cultured in RPMI medium 1640 containing 100 U/ml penicillin, 100 μg/ml streptomycin, 2 mM L-glutamine, and 10% heat-inactivated fetal calf serum. Viral stocks were prepared and standardized as described [8].
Cytotoxicity was evaluated by the MTT assay [8].

[8] = target: T2, HIV-1 gp41 fusion core 6HB (N36 + C34) (Human immunodeficiency virus type 1 group M subtype B, UniProt P04578); experiment: Fusion core 6HB formation by native PAGE; details: Inhibitory Activity EC50 Fusion Core Formation 6HB (N36 + C34) N-PAGE, N36 pre-incubated with compound
T2 sequence (P04578 546-581): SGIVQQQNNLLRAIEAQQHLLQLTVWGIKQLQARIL
Procedure: (§1) Fusion complex formation was carried out by incubating equimolar amounts of HIV-1 gp41 fusion peptides N36 and C34 in PBS (Phosphate Buffer Saline, containing 50 mM sodium phosphate, pH 7.2 and 150 mM NaCl) at 10 or 20 μM each at 37° C. […] Next, an equimolar amount of C34 was added and the samples incubated for 30 min.
N-PAGE was carried out as previously reported [13] with modifications that involve fusion peptide concentration, order of reactions, and time of incubation in fusion complex formation. Tris-glycine gels (18%, Invitrogen, Carlsbad, Calif.) were electrophoresed at 120 V for 2 h, stained with Coomassie Blue and analyzed by densitometry.

[9] = target: T2, HIV-1 gp41 fusion core 6HB (N36 + C34); experiment: Fusion core 6HB formation by circular dichroism spectroscopy
Procedure: as §1
CD spectra were recorded on an AVIV 62-DS CD spectrometer, using 1 mm sample cells and a fixed temperature of 4° C. […] Each spectrum is a smoothed average of 10 scans. The bandwidth for each measurement was 1 nm. […] Prior to calculation of the final ellipticity, all spectra were corrected by subtracting the reference spectra of PBS without peptides.

[10] = Human immunodeficiency virus 1, syncytial formation, 50% inhibition, read-out: Anti-HIV Activity EC50 Syncytium

Q: Which results are given for C/C=C1/[C@H](O[C@@H]2O[C@H](CO)[C@@H](O)[C@H](O)[C@H]2O)OC=C(C(=O)OC)[C@H]1CC(=O)OCCc1ccc(O)c(O)c1 (single isomer, unassigned) [Ole, oleuropein]?
A: serum levels of oleuropein (apoE ko mice): comparable to those in animals fed a diet supplemented with olive oil; tolerability in animals [1]: well tolerated; EC50 (HIV-1 [2]; Human immunodeficiency virus 1, read-out: average EC50 for syncytial formation): 55 nM; EC50 (HIV-1 [2]; [10]): 55 ± 5 nM; EC50 (HIV-1 [3]): 73 nM; EC50 (HIV-1 integrase [4]): 46 nM; EC50 (HIV-1 integrase [5]): 56 nM; EC50 (HIV-1 integrase [6]): 28 nM; activity against HIV-1 primary isolates [7]: active; IC50 (in vitro): > 10 µM; EC50 [8]: ~66 nM and 66 nM; EC50 [9]: 62 nM

Q: With OCCc1ccc(O)c(O)c1 [HT, hydroxytyrosol] as the molecule, how does the EC50 (HIV-1 [2]; [10]) read?
A: 61 nM

Q: What about the EC50 (HIV-1 [3]) of the same molecule?
A: 68 nM

Q: And the EC50 (HIV-1 integrase [4])?
A: 54 nM

Q: And the EC50 (HIV-1 integrase [5])?
A: 43 nM

Q: And the EC50 (HIV-1 integrase [6])?
A: 18 nM

Q: What about the “activity against HIV-1 primary isolates” value [7] of the same molecule?
A: active

Q: What about the IC50 (in vitro) of the same molecule?
A: > 10 µM

Q: What about the EC50 [8] of the same molecule?
A: ~58 nM and 58 nM

Q: And the EC50 [9]?
A: 60 nM
